Where “and” joins values, the source holds several entries; their conditions need not be identical. Equal entries are not always repeated.
Columns and labels:
P-gp = target: T1, P-gp (Homo sapiens, UniProt P08183); experiment: LC-MS/MS intracellular accumulation assay with or without tariquidar (P-gp transport substrate test) in DU145-TXR cells; type: in vitro ADME; conditions: for Intracellular accumulation (normalized ratio of compound to internal standard), Trial 1, + TQR / Intracellular accumulation (normalized ratio of compound to internal standard), Trial 2, + TQR / Intracellular accumulation (normalized ratio of compound to internal standard), Trial 1, - TQR / Intracellular accumulation (normalized ratio of compound to internal standard), Trial 2, - TQR / Intracellular accumulation (normalized ratio of compound to internal standard), Trial 3, + TQR / Intracellular accumulation (normalized ratio of compound to internal standard), Trial 3, - TQR / P-gp transport substrate assessment: DU145-TXR, 2.5 h; for Intracellular accumulation (normalized ratio of compound to internal standard), Trial 1, + TQR / Intracellular accumulation (normalized ratio of compound to internal standard), Trial 2, + TQR / Intracellular accumulation (normalized ratio of compound to internal standard), Trial 1, - TQR / Intracellular accumulation (normalized ratio of compound to internal standard), Trial 2, - TQR / Intracellular accumulation (normalized ratio of compound to internal standard), Trial 3, + TQR / Intracellular accumulation (normalized ratio of compound to internal standard), Trial 3, - TQR: 5 µM compound, mean ± SD, triplicate; for Intracellular accumulation (normalized ratio of compound to internal standard), Trial 1, + TQR / Intracellular accumulation (normalized ratio of compound to internal standard), Trial 2, + TQR / Intracellular accumulation (normalized ratio of compound to internal standard), Trial 3, + TQR: with 500 nM tariquidar; for Intracellular accumulation (normalized ratio of compound to internal standard), Trial 1, - TQR / Intracellular accumulation (normalized ratio of compound to internal standard), Trial 2, - TQR / Intracellular accumulation (normalized ratio of compound to internal standard), Trial 3, - TQR: without tariquidar; for P (- TQR vs + TQR), Trial 1 / P (- TQR vs + TQR), Trial 2 / P (- TQR vs + TQR), Trial 3: Student's T test of the mean; for P-gp transport substrate assessment: 5 µM compound with or without 500 nM tariquidar, LC-MS/MS
T1 construct: The MDR, P-gp overexpressing DU145-TXR cells were maintained under positive selection pressure; endogenous in cells; host or cells: DU145-TXR (paclitaxel-resistant sub-line of DU145 human prostate cancer cells)
Procedure: DU145-TXR cells were seeded at 350,000 cells per well in 6-well plates in complete RPMI medium. […] A full sample of DAU was also prepared for quantitative analysis. […] Media was removed with a glass vacuum aspirator. Cells were re-suspended and washed in 2mL of ice-cold Hank’s Balanced Salt Solution (HBSS, Gibco), and spun again at 2400 rpm. Cell lysates were diluted in 600 µL of ice-cold HBSS, flash-frozen in liquid nitrogen, and stored at −80 °C until analysis. LC-MS/MS intracellular accumulation assays were performed in collaboration with the Pharmacology Core at the University of Texas Southwestern Medical Center (UTSW). […] This method allowed us to quantify the change – if any – in the relative amount of compound present in the samples when TQR was added. An increase in the relative amount of compound indicates enhanced intracellular retention that compound. […] The “Internal Standard” (IS) is a known substance added in a constant amount to each sample. The “Peak Area”, expressed as “counts”, describes the number of MS/MS spectra from the experimental compound and serves as a measure of its relative abundance. […] These values allow a comparison of the relative abundance of compound between the “- TQR” and “+ TQR” samples, and to test for statistically significant differences. LC-MS/MS quantification was performed as follows. Cell lysate was aliquoted into Eppendorf tubes. In contrast to [9], blank cell lysates were not spiked with varying concentrations of each compound to create a standard curve, since compound amounts were normalized to abundance of the internal standard. […] The supernatant was then transferred to an HPCL vial, and subsequently analyzed using LC-MS/MS using a Sciex 4000QTRAP mass spectrometer coupled to a Shimadzu Prominence LC. […] The column flow rate was 1.5 ml/min using an Agilent C18 XDB, 5 micron packing 50 × 4.6 mm column. […] A BSA standard curve was then prepared in water and mixed using the same ratio. […] The ratio of Analyte to Internal Standard was normalized to the lysate content for each individual sample. […] Statistical significance was determined using a Student’s T Test in GraphPad Prism. We aimed to identify P-gp inhibitors that are not transport substrates of the pump itself. […] To test these predictions in vitro, liquid chromatography with tandem mass spectrometry (LC-MS/MS) was used to assess the intracellular accumulation of experimental compounds as described in [9]. […] The relative intracellular accumulation of each experimental compound was then assessed using LC-MS/MS. […] The P-gp substrate and chemotherapeutic daunorubicin (DAU) was used as a positive control for P-gp-mediated transport.

[1] = system: HFL1 (human lung fibroblast) cell line; experiment: MTT viability assay, inherent toxicity in non-cancerous HFL1 cells; type: cell-based; set-up: Mean % Survival: tested at 15 µM; conditions: for Inherent toxicity to non-cancerous HFL1 cells: 15 µM compound, 48 h, MTT, 20% reduction in viability = maximum acceptable toxicity; for Mean % Survival / % Survival (individual sample): HFL1 cells, compound alone; for Mean % Survival: mean of 8 samples; for % Survival (individual sample): single samples (trials 1-2, samples 1-4)
Procedure: The chemotherapeutic sensitive DU145 human prostate cancer cells and the multidrug resistant sub-line, DU145-TXR, were generous gifts from Dr. Evan Keller (University of Michigan, Ann Arbor, MI). The MDR, P-gp overexpressing DU145-TXR cells were maintained under positive selection pressure by supplementing complete medium with 10 nM paclitaxel (Acros Organics, NJ). […] The MDR, P-gp overexpressing A2780-ADR cell line was maintained under positive selection pressure by supplementing complete medium with 100 nM doxorubicin (Fisher Scientific, NJ). The non-cancerous HFL1 (human lung fibroblast) cell line cell line was a generous gift from Dr. Robert Harrod (Southern Methodist University, Dallas, TX) and was maintained in complete F12K media consisting of F12K with 10% fetal bovine serum, 100 U/mL penicillin, and 100 µg/mL streptomycin (Gibco). Flasks and 96 well plates that were used with the non-cancerous line HFL1 were pre-treated with 0.1 mg/ml Collagen Type 1 (Gibco) and rinsed with PBS (Fisher).
MTT assays measure the reduction of yellow, water soluble 3-(4,5-dimethylthiazol-2-yl)-2,5-diphenyltetrazolium bromide (MTT) to blue, insoluble formazan crystals by cellular reductase processes in living cells. Cells were trypsinized from monolayers and seeded in complete medium in 96 well plates. Cancerous cell lines (DU145, DU145-TXR, A2780, A2780-ADR) were seeded at 3,000 cells per well in complete RPMI medium. The non-cancerous HFL1 line was seeded at 4,000 cells per well in complete F12K medium, in collagen-treated plates (Collagen Type 1, Gibco). Cells were incubated with experimental compounds for 48 hours at 37 °C and 5% CO2 in a humidified incubator. At 48 hours, MTT was added (20 µL/well of 5 mg/mL MTT in PBS) to each well. After incubation for 4 hours, the media was removed, and the formazan crystals were dissolved in 100 µL DMSO per well. Plates containing the semi-adherent A2780 or A2780-ADR lines were spun at 1400 rpm for 3 minutes prior to aspiration of media, and the addition of DMSO. Plates were shaken for 10 minutes at 500 rpm on an Orbital shaker (LabDoctor from MidSci, St Louis, MO). The absorbance was measured at 570 nm using a Bio-Tek Cytation 5 (Bio-Tek, Winooski, VT). The measured absorbance value was correlated with the number of metabolically active cells in that well, corrected for absorbance of media. The percent of cell viability (termed ‘survival’ here) was calculated as a percentage of survival of the control condition, which refers to vehicle-treated (DMSO as vehicle) cells, or vehicle-and-chemotherapeutic-treated cells, if testing a compound’s ability to re-sensitize cells to a chemotherapeutic. Percent survival was calculated using the following equation:
% Survival=100 × absorbance of experimental cells/mean absorbance of control treated cells
For DU145-TXR, DU145, HFL1 and A2780 cells – data are the mean ± one standard deviation, 8 samples per compound, from at least two independent trials per compound. […] For A2780-ADR cells, data are the mean ± one standard deviation with 12 samples per compound, from at least two independent trials per compound.
If a P-gp inhibitor is intrinsically toxic to non-cancerous cells, it is more likely to be participating in undesirable off-target interactions. The top compounds from the screens shown above were screened for inherent toxicity using the non-cancerous HFL1 (human lung fibroblast) cell line. HFL1 cells were incubated with 15 µM compound for 48 hours, after which cell viability was assessed using MTT cell viability assays. A 20% reduction in cell viability (compared to DMSO-treated cells) was considered the maximum acceptable toxicity (see dotted line). The chemotherapeutic daunorubicin was included as a positive control for toxicity.
The top compounds from previous screens were tested against the non-cancerous HFL1 cell line.

[2] = significant difference = likely P-gp transport substrate

T1 sequence (P08183 whole entry): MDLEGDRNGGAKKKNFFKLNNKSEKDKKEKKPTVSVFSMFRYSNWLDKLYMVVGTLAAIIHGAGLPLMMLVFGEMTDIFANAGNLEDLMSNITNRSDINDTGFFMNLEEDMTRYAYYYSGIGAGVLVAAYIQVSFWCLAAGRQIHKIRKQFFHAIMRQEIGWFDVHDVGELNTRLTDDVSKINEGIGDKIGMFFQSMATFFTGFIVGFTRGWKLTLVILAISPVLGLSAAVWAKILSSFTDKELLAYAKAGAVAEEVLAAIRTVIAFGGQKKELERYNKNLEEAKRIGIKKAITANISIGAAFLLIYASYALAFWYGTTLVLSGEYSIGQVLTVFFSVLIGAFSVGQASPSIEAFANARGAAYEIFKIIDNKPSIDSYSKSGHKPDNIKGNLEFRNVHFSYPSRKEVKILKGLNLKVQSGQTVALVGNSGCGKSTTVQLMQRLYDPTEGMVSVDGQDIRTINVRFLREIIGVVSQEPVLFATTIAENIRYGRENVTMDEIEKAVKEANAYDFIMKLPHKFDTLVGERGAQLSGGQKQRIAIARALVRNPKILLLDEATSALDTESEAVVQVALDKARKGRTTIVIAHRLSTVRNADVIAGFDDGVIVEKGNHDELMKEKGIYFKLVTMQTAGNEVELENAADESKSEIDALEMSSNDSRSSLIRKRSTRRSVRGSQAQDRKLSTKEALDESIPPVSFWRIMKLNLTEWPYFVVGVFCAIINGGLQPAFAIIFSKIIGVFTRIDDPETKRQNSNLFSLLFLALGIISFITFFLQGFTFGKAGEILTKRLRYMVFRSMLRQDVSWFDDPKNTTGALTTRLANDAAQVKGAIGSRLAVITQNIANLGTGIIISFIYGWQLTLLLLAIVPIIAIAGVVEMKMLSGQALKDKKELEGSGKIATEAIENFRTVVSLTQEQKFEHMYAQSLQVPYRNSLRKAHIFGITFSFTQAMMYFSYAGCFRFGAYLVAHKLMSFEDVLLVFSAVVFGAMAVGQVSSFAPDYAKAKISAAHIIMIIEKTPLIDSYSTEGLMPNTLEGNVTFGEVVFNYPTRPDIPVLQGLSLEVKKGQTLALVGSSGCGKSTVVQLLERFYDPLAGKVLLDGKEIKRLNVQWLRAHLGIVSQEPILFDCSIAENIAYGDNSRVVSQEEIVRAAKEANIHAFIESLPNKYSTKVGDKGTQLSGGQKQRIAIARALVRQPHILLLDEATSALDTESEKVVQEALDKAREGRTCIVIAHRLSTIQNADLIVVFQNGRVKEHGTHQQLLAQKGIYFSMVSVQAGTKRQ

Structure (SMILES)	Intracellular accumulation (normalized ratio of compound to internal standard), Trial 1, + TQR (P-gp)	Intracellular accumulation (normalized ratio of compound to internal standard), Trial 2, + TQR (P-gp)	Intracellular accumulation (normalized ratio of compound to internal standard), Trial 1, - TQR (P-gp)	Intracellular accumulation (normalized ratio of compound to internal standard), Trial 2, - TQR (P-gp)	P (- TQR vs + TQR), Trial 1 (P-gp)	P (- TQR vs + TQR), Trial 2 (P-gp)	Intracellular accumulation (normalized ratio of compound to internal standard), Trial 3, + TQR (P-gp)	Intracellular accumulation (normalized ratio of compound to internal standard), Trial 3, - TQR (P-gp)	P (- TQR vs + TQR), Trial 3 (P-gp)	Inherent toxicity to non-cancerous HFL1 cells [1]	Mean % Survival [1] [%]	% Survival (individual sample) [1]	P-gp transport substrate assessment (P-gp)	Significance of accumulation with tariquidar, Trial 1 (P-gp; [2])	Significance of accumulation with tariquidar, Trial 2 (P-gp; [2])
Nc1nonc1-n1nnc(C(=O)N/N=C/c2c3ccccc3cc3ccccc23)c1COc1ccc(F)cc1 [Compound 60, Nc1nonc1-n1nnc(C(=O)N\N=C\c2c3ccccc3cc3ccccc23)c1COc1ccc(F)cc1]	0.282 ± 0.010	0.250 ± 0.003	0.231 ± 0.165	0.250 ± 0.003	0.6	> 1									
CCN1CCN(Cc2c(C(=O)N/N=C3/C(=O)N(C)c4ccccc43)nnn2-c2nonc2N)CC1 [Compound 61, CCN1CCN(Cc2c(nnn2-c2nonc2N)C(=O)N\N=C2\C(=O)N(C)c3ccccc23)CC1]	0.076 ± 0.001	0.027 ± 0.011	0.023 ± 0.002	0.016 ± 0.006	2 x 10^-6	0.2	0.126 ± 0.010	0.021 ± 0.004	0.0001						
O=C(c1cc2ccccc2[nH]1)N1CCN(S(=O)(=O)c2cccc3nonc23)CC1 [Compound 66, O=C(N1CCN(CC1)S(=O)(=O)c1cccc2nonc12)c1cc2ccccc2[nH]1]	0.833 ± 0.124	0.036 ± 0.005	0.747 ± 0.096	0.040 ± 0.001	0.4	0.2	0.140 ± 0.029	0.170 ± 0.039	0.3						
O=C(c1nc(-c2ccc3cc[nH]c3c2)no1)N1CCN(c2nsc3ccccc23)CC1 [Compound 70, O=C(N1CCN(CC1)c1nsc2ccccc12)c1nc(no1)-c1ccc2cc[nH]c2c1]	0.93 ± 0.07	0.55 ± 0.15	0.93 ± 0.15	0.56 ± 0.11	> 1	0.9				either ‘non-toxic’ or ‘within acceptable limits’ of toxicity	81.4	81% and 85%	unlikely to be transport substrates of P-gp	N.S. (P > 0.05 = not significant (N.S.))	N.S. (P > 0.05 = not significant (N.S.))
COc1ccc(OC)c(NC(=O)c2nnn(-c3ccc4noc(-c5ccccc5)c4c3)c2C)c1 [Compound 71, COc1ccc(OC)c(NC(=O)c2nnn(c2C)-c2ccc3noc(-c4ccccc4)c3c2)c1]	0.067 ± 0.005	0.091 ± 0.043	0.085 ± 0.013	0.071 ± 0.009	0.09	0.5									
Cc1onc(-c2ccccc2)c1-c1nnc(Cn2cnc3c(oc4ccccc43)c2=O)o1 [Compound 78, Cc1onc(c1-c1nnc(Cn2cnc3c4ccccc4oc3c2=O)o1)-c1ccccc1]	0.001 ± 0.000	0.001 ± 0.000	0.001 ± 0.000	0.001 ± 0.000						either ‘non-toxic’ or ‘within acceptable limits’ of toxicity	99.6	102%	unlikely to be transport substrates of P-gp		

From article PMC12349723, “Computationally accelerated identification of P-glycoprotein inhibitors” (PLOS One, 2025)
